One data set has as its system PBMC. Kind of data set: PBMC stimulation test, IL-6 in supernatant by ELISA. Format: cell-based, human. As to conditions: PBMC 1×10^6 cell/ml, peptide 10 μg/ml, 5 days of culture. An excerpt:
The SE-DR molecule is directly related to the pathogenesis of RA. It can present RA-related autoantigens in vivo, such as type II collagen (CII), heat shock protein 60 (Hsp60), cartilage glycoprotein (HCgp-39) and so on, and further activate autoreactive T cells, leading to the occurrence of rheumatoid arthritis. An important strategy for the treatment of RA is to use competitive inhibition to block the activation of autoreactive T cells by autoantigen peptides. […] Based on the above principles, we have designed and synthesized a series of altered peptide ligands, and screened for their affinity to SE-DR and for the activation ability on the peripheral blood T cells in RA patients. The specific steps and results are shown in Example 1 and Example 2.
3 mL ficoll was added to a 15 mL centrifuge tube, and 4 mL blood sample was then applied on the surface of ficoll. The tube was centrifuged at 400 g at 18-20° C. for 30-40 min. The upper layer of plasma was aspirated with a Pasteur pipette, and the PBMC layer (approximately 2 mL) was aspirated, and added to a 14 mL centrifuge tube previously filled with at least 3 volumes (6 mL) of PBS. The mixture was gently resuspended. The tube was centrifuged at 60-100 g for 10 min at 18-20° C. After centrifugation, the supernatant was removed with a Pasteur pipette, and the resulting cell mass was resuspended in 6-8 mL PBS and centrifuged at 18-20° C. for 10 min at 60-100 g to remove the supernatant. The cells were resuspended in an appropriate amount of 1640 complete medium and diluted to 1×10^6 cell/ml after cell counting. The diluted cell suspension was added to a 96-well plate. The positive control, allosteric peptide, was added to 100 μl cell culture to a final concentration of 10 μg/ml. The mixture was replenished to 200 μL with 1640 complete medium. After 5 days of culture, the supernatant was aspirated, centrifuged at 3000 rpm for 5 minutes, and the level of IL-6 in the supernatant was detected by ELISA.
(ELISA stands for enzyme-linked immunosorbent assay.)

Data set [1] has as its system immune system of healthy rats. Kind of data set: Immune indicators of SD rats after one month of administration (Example 4). In kind it is in vivo, rat. The settings on record: once a day for 4 weeks, end of administration. As for the experimental part:
SD rats were used to investigate the effects of the SE-DR affinity peptides on the immune indicators of the rats after continuous administration for one month. […] At the end of administration, analysis was conducted on the serum anti-FNS007 antibodies, different types of serum immunoglobulins, the serum complement, the peripheral blood T lymphocyte and the serum cytokines.

The subject of data set [2] is immune system of healthy monkeys. Kind of data set: Immune indicators of cynomolgus monkeys after one month of administration (Example 5). The settings on record: once a day for 4 weeks, end of administration. Format: in vivo, cynomolgus monkey. The source says:
Cynomolgus monkeys were used to investigate the effects of the SE-DR affinity peptide on the immune indicators of cynomolgus monkeys after continuous administration for one month. […] At the end of administration, the immune indicators, including the serum anti-FNS007 antibodies, the immunoglobulins of different serotypes, the serum complement, the peripheral blood T lymphocyte and the serum cytokines, were observed.

Data set [3] has as its system CIA mice infected with chronic hepatitis B. Kind of data set: CIA mice infected with chronic hepatitis B (Example 8). In kind it is in vivo, mouse. As for the experimental part:
Establishment of chronic hepatitis B model in mice: DBA/1 mice were injected with Raav8-1. 3 HBV (1×10^12 vg/mL) via tail vein to establish HBV chronic hepatitis B model.
DBA/1 mice infected with chronic hepatitis B were used to establish CIA model with chronic hepatitis B infection. Methods: Two days after the mice were injected with Raav8-1.3 HBV (1×10^12 vg/mL) via tail vein, the emulsion of bovine C II and CFA (containing 100 μg collagen) was intradermally injected into the tail head of the mice for immunization. After 21 days, the mice were boosted once by intraperitoneal injection of the emulsion (containing 100 μg collagen) prepared by bovine C II and IFA. Thereafter, the morphological changes of the four paws of the mice were examined every day, and the mice were randomly assigned to the treatment group at inflammation score of 1. […] Another 10 mice with latent hepatitis B infection were not subjected to model establishment and set as the control group. PBS was administrated to both the model group and the control group. The mice in each group were given the corresponding drugs by tail intravenous injection at the volume of 10 ml/kg, once every other day, for 27 consecutive days. The mice were sacrificed on day 28 after administration. The inflammation scores of the four paws of the mice in each group were evaluated during the administration. The serological indicators for virus injection and liver function of the mice were detected on the day of booster immunization (22 days after tail vein injection) and at the time of sacrifice.

For data set [4], the system named is CIA rats with latent tuberculosis infection.

Where a SMILES comes first, the peptide text is derived from it. Where no end group is shown, it is not given here.

Turning to `CC(C)C[C@H](NC(=O)[C@H](CCCNC(N)=O)NC(=O)[C@@H](NC(=O)[C@H](C)NC(=O)[C@H](CO)NC(=O)[C@H](CO)NC(=O)[C@H](CCCNC(N)=O)NC(=O)[C@@H](NC(=O)[C@H](C)NC(=O)[C@H](Cc1ccc(O)cc1)NC(=O)[C@@H](NC(=O)CN)C(C)C)[C@@H](C)O)C(C)C)C(=O)N[C@@H](CCCNC(N)=O)C(=O)O` [APL34, GVYATCitSSAACitLCit], in the data set with PBMC, the “IL-6 levels in the supernatant” value worked out at 5.2 ng/mL.

For `CC(C)C[C@H](NC(=O)[C@H](CC(C)C)NC(=O)[C@@H](NC(=O)[C@@H](N)C(C)C)C(C)C)C(=O)N[C@H](C(=O)N[C@@H](C)C(=O)N[C@H](C(=O)N[C@@H](CCC(=O)O)C(=O)NCC(=O)N[C@@H](CCCNC(N)=O)C(=O)N[C@H](C(=O)N[C@@H](CCCNC(=N)N)C(=O)N[C@H](C(=O)N[C@@H](C)C(=O)N[C@@H](CO)C(=O)N[C@@H](C)C(=O)N[C@@H](Cc1ccc(O)cc1)C(=O)N[C@@H](CCC(N)=O)C(=O)N[C@@H](CC(=O)O)C(=O)N[C@@H](CCCCN)C(=O)O)C(C)C)C(C)C)[C@@H](C)O)C(C)C` [APL36], in the data set on PBMC, the “IL-6 levels in the supernatant” value turned out to be 6.8 ng/mL.

For the compound `CC(C)C[C@H](NC(=O)[C@H](C)NC(=O)[C@@H](NC(=O)[C@H](C)NC(=O)[C@@H](N)CO)C(C)C)C(=O)N[C@@H](CCCNC(N)=O)C(=O)N[C@@H](CO)C(=O)N[C@@H](CO)C(=O)N[C@H](C(=O)N1CCC[C@H]1C(=O)NCC(=O)N[C@H](C(=O)N[C@@H](CCCNC(=N)N)C(=O)O)C(C)C)C(C)C` [APL24, SAVALCitSSVPGVR], in the data set with PBMC, the “IL-6 levels in the supernatant” value was 6.6 ng/mL.

As for YAKQATLKLA [APL6], the “IL-6 levels in the supernatant” value with PBMC was 6.5 ng/mL.

With RSFTLASSATGVG [APL17], the “IL-6 levels in the supernatant” value in the data set with PBMC was determined as 5.4 ng/mL.

Consider `CC(C)C[C@H](NC(=O)[C@H](CCCNC(=N)N)NC(=O)[C@@H](NC(=O)[C@H](C)NC(=O)[C@@H](N)CO)C(C)C)C(=O)N[C@@H](CCCNC(N)=O)C(=O)N[C@@H](CCCNC(=N)N)C(=O)N[C@@H](CO)C(=O)N[C@H](C(=O)N1CCC[C@H]1C(=O)NCC(=O)N[C@H](C(=O)N[C@@H](CCCNC(=N)N)C(=O)O)C(C)C)C(C)C` [APL26, SAVRLCitRSVPGVR], for which the “IL-6 levels in the supernatant” value with PBMC turned out to be 7 ng/mL.

On to YVAQNTLKLA [APL5], for which the “IL-6 levels in the supernatant” value with PBMC was 8.7 ng/mL.

In data set [1], `CC(C)C[C@H](NC(=O)CNC(=O)[C@H](CCCNC(N)=O)NC(=O)[C@H](C)NC(=O)[C@@H]1CCCN1C(=O)[C@@H]1CCCN1C(=O)[C@@H]1CCCN1C(=O)[C@H](C)NC(=O)[C@@H]1CCCN1C(=O)[C@H](CCCNC(N)=O)NC(=O)[C@H](CO)NC(=O)[C@H](CCCNC(=N)N)NC(=O)CNC(=O)[C@H](CCCNC(N)=O)NC(=O)[C@@H](NC(=O)[C@H](CO)NC(=O)[C@H](CCC(=O)O)NC(=O)[C@@H](NC(=O)[C@H](CO)NC(=O)[C@H](CO)NC(=O)[C@H](CCCNC(N)=O)NC(=O)[C@H](CC(C)C)NC(=O)[C@H](CCCNC(N)=O)NC(=O)[C@@H](N)C(C)C)C(C)C)[C@@H](C)O)C(=O)N[C@H](C(=O)O)[C@@H](C)O` [APL37, VCitLCitSSVESTCitGRSCitPAPPPACitGLT] displayed a CD3% of 38.29 ± 11.34%, a CD4% of 19.25 ± 7.84%, a CD8% of 18.33 ± 6.15% and an IFN-γ of 2.44 ± 0.31 pg/mL. In data set [1], the IL-2 is given as 3.28 ± 2.59 pg/mL, the IL-4 is recorded as 1.77 ± 0.85 pg/mL and the TNF-α turned out to be 4.96 ± 2.01 pg/mL. In data set [2], this compound yielded a CD3% of 64.55 ± 17.31%, a CD4% of 28.84 ± 9.35%, a CD8% of 27.61 ± 9.99% and an IFN-γ of 5.11 ± 0.54 pg/mL. In data set [2], this compound registered an IL-2 of 4.46 ± 0.44 pg/mL, an IL-4 of 2.18 ± 0.29 pg/mL and a TNF-α of 2.51 ± 0.41 pg/mL. The ALT level in data set [3] (at sacrifice, day 28) came to 47.37 ± 21.13 U/L. The “Observation on the daily condition of mice” value in data set [3] (during administration) was “No abnormality”. The “Observation on the daily condition of rats” value in data set [4] (during administration) is recorded as “No abnormality”. The same compound returned a Tuberculosis recurrence rate in data set [4] (peptides 0.2 mmol, adalimumab 1 mg/kg, 21 days) of 0%. The “Culture of MTB from lungs and spleens of rats at sacrifice” value in data set [4] (sacrifice on day 22, peptides 0.2 mmol, adalimumab 1 mg/kg) is listed as “Negative”.

`C[C@H](NC(=O)CNC(=O)CNC(=O)[C@H](CCC(N)=O)NC(=O)[C@H](CCC(=O)O)NC(=O)CNC(=O)[C@H](CCCCN)NC(=O)[C@@H](N)Cc1ccccc1)C(=O)NCC(=O)N[C@@H](CCC(=O)O)C(=O)O` [APL1]: the “IL-6 levels in the supernatant” value in the data set with PBMC is 18.9 ng/mL.

Take RSFTLAASETGVG [APL16]: in the data set on PBMC, the “IL-6 levels in the supernatant” value stood at 6.8 ng/mL.

As to `CC[C@H](C)[C@H](N)C(=O)N[C@@H](Cc1c[nH]c2ccccc12)C(=O)N[C@@H](Cc1ccc(O)cc1)C(=O)N[C@H](C(=O)N[C@H](C(=O)N[C@@H](CS)C(=O)N[C@@H](Cc1ccccc1)C(=O)NCC(=O)N[C@@H](CS)C(=O)N[C@@H](CCC(=O)O)C(=O)N[C@H](C(=O)N[C@@H](Cc1c[nH]cn1)C(=O)N[C@@H](C)C(=O)N[C@@H](CCSC)C(=O)N[C@@H](CC(C)C)C(=O)O)[C@@H](C)O)[C@@H](C)O)[C@@H](C)CC` [APL10] (H-IWYITCFGCETHAML-OH; N-terminus and C-terminus assumed), in the data set with PBMC, the “IL-6 levels in the supernatant” value was 4.9 ng/mL.

In the case of `CC(C)C[C@H](NC(=O)[C@@H](NC(=O)[C@H](Cc1ccccc1)NC(=O)[C@H](CO)NC(=O)[C@@H](N)CCCNC(=N)N)[C@@H](C)O)C(=O)N[C@@H](CC(=O)O)C(=O)N[C@@H](CO)C(=O)N[C@@H](CO)C(=O)N[C@@H](CCC(=O)O)C(=O)N[C@H](C(=O)NCC(=O)N[C@H](C(=O)NCC(=O)O)C(C)C)[C@@H](C)O` [APL15], the “IL-6 levels in the supernatant” value in the data set on PBMC worked out at 8.7 ng/mL.

As for `CC(C)C[C@H](NC(=O)[C@@H](NC(=O)[C@H](Cc1ccccc1)NC(=O)[C@H](CO)NC(=O)[C@@H](N)CCCNC(=N)N)[C@@H](C)O)C(=O)N[C@@H](CC(=O)O)C(=O)NCC(=O)N[C@@H](CO)C(=O)N[C@@H](CCC(=O)O)C(=O)N[C@H](C(=O)NCC(=O)N[C@H](C(=O)NCC(=O)O)C(C)C)[C@@H](C)O` [APL19], the “IL-6 levels in the supernatant” value with PBMC is 15.8 ng/mL.

In the case of `CC(C)C[C@H](NC(=O)[C@H](CCCCN)NC(=O)[C@H](CC(N)=O)NC(=O)[C@H](C)NC(=O)[C@H](CCCNC(N)=O)NC(=O)[C@H](CC(N)=O)NC(=O)[C@@H](NC(=O)[C@H](Cc1ccccc1)NC(=O)[C@H](CC(=O)O)NC(=O)[C@@H](N)CCC(N)=O)[C@@H](C)O)C(=O)N[C@@H](CCCCN)C(=O)N[C@@H](CC(N)=O)C(=O)N[C@@H](CO)C(=O)O` [APL35, QDFTNCitANKLKNS], the “IL-6 levels in the supernatant” value in the data set with PBMC was determined as 20.8 ng/mL.

The record behind these values is patent US20250074946A1, “USE OF SE-DR AFFINITY PEPTIDE IN PREPARING DRUG FOR TREATING RHEUMATIC DISEASE” (HEBEI FITNESS BIOTECHNOLOGY CO., LTD., priority 2021, published 2025).
